Consider 15 compounds from US11345713B2, “Compounds as modulators of TLR2 signaling” (Neuropore Therapies, inc., priority 2018, dated 2022).

In general, IC50 refers to the concentration at which inhibition is half-maximal. A higher IC50 goes with weaker potency.

The structures appear in SMILES notation. Some results are limits rather than exact numbers.

The target of assay [1] is T1, human TLR2 (Pam2CSK4, TLR2/6 agonist) in HEK-Blue hTLR2 cells (Homo sapiens, UniProt O60603).
T1 construct: host or cells: HEK-Blue hTLR2 (HEK-293)
Put plainly: HEK-Blue hTLR2 antagonism assay (SEAP reporter) with Pam2CSK4 as agonist. To be noted: 2 h compound pre-incubation, approx. 3×EC50 Pam2CSK4, 18 h, SEAP OD 655 nm, background subtracted. The format is cell-based. As for the experimental part: (§1) Synthetic diacylated lipoprotein (Pam2CSK4, TLR2/6 agonist) and synthetic triacylated lipoprotein (Pam3CSK4, TLR1/2 agonist) were obtained from InvivoGen and were dissolved in endotoxin-free water to a concentration 1 mg/mL, vortexed until complete solubilization, and stored in aliquots at −20° C. Prior to addition to cells, an aliquot of the dissolved ligand was vortexed shortly and then was diluted in medium to 25 ng/mL Pam2CSK4 or 1000 ng/mL Pam3CSK4. The EC50 of the agonists for each assay run was determined by using 3-fold dilutions of each agonist from the following starting concentrations: 5 ng/mL for Pam2CSK4, and 200 ng/mL for Pam3CSK4.
(§2) Test compounds were solubilized fresh to 10-20 mM stocks in DMSO and sonicated for 5-10 minutes in a water bath sonicator. Serial dilutions were prepared in DMSO, and then diluted in medium. The final concentration of DMSO used in the assay was 1%.
(§3) HEK-Blue hTLR2 reporter cells (InvivoGen) are HEK-293 cells stably expressing both the human TLR2 gene and a secreted embryonic alkaline phosphatase (SEAP) reporter construct downstream of NFκB promotor sites. HEK-Blue hTLR2 reporters were cultured according to manufacturer's protocol using Dulbecco's Modified Eagle Medium (DMEM; Gibco) containing 1× GlutaMax (Gibco), 10% heat-inactivated Fetal Bovine Serum (Gibco), Pen-Strep (50 U/mL penicillin, 50 μg/mL streptomycin, Gibco), 100 μg/mL Normocin (InvivoGen), and the selective antibiotic, 1× HEK-Blue Selection (InvivoGen). Quanti-Blue reagent (InvivoGen) for detection and quantification of secreted alkaline phosphatase was dissolved in 100 mL of endotoxin-free water, warmed to 37° C. for 30 minutes and then filtered using a 0.2 μm membrane.
(§4) On day 1, 50 μL of each test compound dilution in duplicates or a vehicle control was added to each well of a 96-well plate followed by addition of 150 μL of HEK-Blue hTLR2 cell suspension (1×10^5 cells/well) and incubated at 37° C./5% CO2 for 2 h. Next, 50 μL of an approximate 3×EC50 concentration of each agonist (Pam2CSK4 or Pam3CSK4) was added to the wells containing test compounds or the vehicle control. The plates were then incubated at 37° C./5% CO2 for 18 h. For each assay run, non-treated HEK-Blue hTLR2 cells were treated with serial dilutions of agonists to determine EC50 values for the respective run.
(§5) On day 2, secreted alkaline phosphatase (SEAP) activity was detected in cell culture supernatants. In brief, 20 μL was collected from each well and transferred to a 96-well plate. Next, 200 μL of Quanti-Blue detection reagent was added to each well. Plates were incubated at room temperature for 15 min and SEAP activity was assessed by spectrophotometer OD reading at 655 nm. […] The activities of the compounds against Pam2CSK4 and Pam3CSK4 are presented as IC50 values for the response from cells treated with agonists with the background signal subtracted.

Assay [2] addresses T2, human TLR2 (Pam3CSK4, TLR1/2 agonist) in HEK-Blue hTLR2 cells (Homo sapiens, UniProt O60603).
T2 construct: host or cells: HEK-Blue hTLR2 (HEK-293)
The assay is described as follows: HEK-Blue hTLR2 antagonism assay (SEAP reporter) with Pam3CSK4 as agonist. Format: cell-based. The settings on record: 2 h compound pre-incubation, approx. 3×EC50 Pam3CSK4, 18 h, SEAP OD 655 nm, background subtracted. As for the experimental part: as §1, §2, §3, §4, §5

T2 sequence (O60603 19-784 limits assumed): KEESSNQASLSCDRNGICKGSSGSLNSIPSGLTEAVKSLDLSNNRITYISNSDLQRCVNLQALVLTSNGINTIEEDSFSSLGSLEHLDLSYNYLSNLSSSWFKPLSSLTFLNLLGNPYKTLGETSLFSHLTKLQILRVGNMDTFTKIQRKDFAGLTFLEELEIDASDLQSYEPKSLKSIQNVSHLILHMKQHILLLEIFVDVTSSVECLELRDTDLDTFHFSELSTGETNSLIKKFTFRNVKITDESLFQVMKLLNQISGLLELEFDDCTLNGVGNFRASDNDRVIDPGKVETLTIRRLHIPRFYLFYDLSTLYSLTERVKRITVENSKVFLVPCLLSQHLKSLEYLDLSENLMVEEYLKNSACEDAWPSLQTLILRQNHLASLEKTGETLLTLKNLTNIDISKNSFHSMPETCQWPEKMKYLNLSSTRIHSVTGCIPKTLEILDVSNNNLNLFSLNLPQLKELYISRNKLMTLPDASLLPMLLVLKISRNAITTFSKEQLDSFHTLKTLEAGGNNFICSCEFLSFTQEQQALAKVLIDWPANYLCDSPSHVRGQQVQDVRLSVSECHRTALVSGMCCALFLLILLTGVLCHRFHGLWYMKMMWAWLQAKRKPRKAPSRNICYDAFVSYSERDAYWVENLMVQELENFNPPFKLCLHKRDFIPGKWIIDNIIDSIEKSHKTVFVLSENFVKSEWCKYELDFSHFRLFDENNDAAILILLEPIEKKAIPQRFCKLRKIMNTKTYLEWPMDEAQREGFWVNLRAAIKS
T1 sequence (O60603 19-784 limits assumed): as above

In the case of `O=Cc1cc(/C=C/c2ccc3c(c2)CCCO3)cc(F)c1O` [compound 68, (E)-5-(2-(chroman-6-yl)vinyl)-3-fluoro-2-hydroxybenzaldehyde], the IC50 in assay [1] was 1.6 µM; in assay [2], 1.3 µM.
The corresponding values for `COc1cc(/C=C/c2cc(C=O)c(O)c(OC)c2)ccc1O` [compound 34, (E)-2-hydroxy-5-(4-hydroxy-3-methoxystyryl)-3-methoxybenzaldehyde] are 9.7 µM and 7.5 µM.
For `COc1cc(-c2cc3c(s2)CCN(C(=O)C2CC2)C3)cc(C(=O)/C=C/c2ccccc2)c1O` [compound 74, (E)-1-(5-(5-(cyclopropanecarbonyl)-4,5,6,7-tetrahydrothieno[3,2-c]pyridin-2-yl)-2-hydroxy-3-methoxyphenyl)-3-phenylprop-2-en-1-one] the same measures were 6.3 µM and 7 µM.
On to `COc1cc(/C=C/c2cccc(N3CCOCC3)c2)cc(C=O)c1O` [compound 44, (E)-2-hydroxy-3-methoxy-5-(3-morpholinostyryl)benzaldehyde], for which the figures for the IC50 in assay [1] and in assay [2] were 3 µM and 3.2 µM, respectively.
For `COc1cc(/C=C/c2ccc(-n3cccn3)cc2)cc(C=O)c1O` [compound 56, (E)-5-(4-(1H-pyrazol-1-yl)styryl)-2-hydroxy-3-methoxybenzaldehyde] the same measures were 1.8 µM and 1.7 µM.
The corresponding values for `COc1cc(/C=C/c2ccc(C(F)(F)F)cc2)cc(C=O)c1O` [compound 8, (E)-2-hydroxy-3-methoxy-5-(4-(trifluoromethyl)styryl)benzaldehyde] are 6.3 µM and 5.5 µM.
The corresponding values for `COc1cc(/C=C\c2ccc(N3CCOCC3)cc2)cc(C=O)c1O` [compound 41, (Z)-2-hydroxy-3-methoxy-5-(4-morpholinostyryl)benzaldehyde] are 35.1 µM and 29.8 µM.
With `COc1cc(/C=C/c2ccc(N3CCCC3)cc2)cc(O)c1C=O` [compound 52, (E)-2-hydroxy-6-methoxy-4-(4-(pyrrolidin-1-yl)styryl)benzaldehyde], the IC50 in assay [1] and in assay [2] was above 100 µM in each case.
Turning to `COc1ccc(/C=C/c2cc(C=O)c(O)cc2F)cc1` [compound 22, (E)-4-fluoro-2-hydroxy-5-(4-methoxystyryl)benzaldehyde], the IC50 in assay [1] worked out at 17.8 µM; in assay [2], 6.3 µM.
The corresponding values for `COc1cc(/C=C\c2ccc(N3CCCC3)cc2)cc(C=O)c1O` [compound 51, (Z)-2-hydroxy-3-methoxy-5-(4-(pyrrolidin-1-yl)styryl)benzaldehyde] are 71.3 µM and 70.1 µM.
The corresponding values for `CCN(CC)c1ccc(/C=C/c2cc(F)c(O)c(C=O)c2)cc1` [compound 64, (E)-5-(4-(diethylamino)styryl)-3-fluoro-2-hydroxybenzaldehyde] are 1.1 µM and 0.5 µM.
The corresponding values for `COc1cc(/C=C/c2ccc(C)nc2)cc(C=O)c1O` [compound 26, (E)-2-hydroxy-3-methoxy-5-(2-(6-methylpyridin-3-yl)vinyl)benzaldehyde] are 7.4 µM and 9.3 µM.
On to `COc1cc(C=Cc2ccc(Cl)cc2)cc(C=O)c1O` [compound 3, 5-(4-chlorostyryl)-2-hydroxy-3-methoxybenzaldehyde], for which the IC50 in assay [1] came to 4.8 µM; in assay [2] it was 3.1 µM.
For `Cc1ccc(/C=C/c2cc(F)c(O)c(C=O)c2)cn1` [compound 29, (E)-3-fluoro-2-hydroxy-5-(2-(6-methylpyridin-3-yl)vinyl)benzaldehyde] the same measures were 9.1 µM and 10 µM.
In the case of `O=Cc1cc(/C=C\c2ccc(N3CCOCC3)cc2)cc(F)c1O` [compound 43, (Z)-3-fluoro-2-hydroxy-5-(4-morpholinostyryl)benzaldehyde], the figures for the IC50 in assay [1] and in assay [2] were 32.8 µM and 40.7 µM, respectively.
